Patent publication US12544395B2, “Combination compositions comprising a beta-lactamase inhibitor and uses thereof” (priority 2018, dated 2026)
In brackets after ≈: the same amount, converted by molar mass. Like-named read-outs stand apart in the source and are kept apart here.

Key:
Format in all cases: cell-based
[1] = tested on: E. coli 1924; assay: Broth microdilution MIC (strain enzymes: TEM-12); conditions: Escherichia coli, 1924; alone; read-out: MIC of cefdinir (CDR)
[2] = tested on: E. coli 2150; assay: Broth microdilution MIC (strain enzymes: SHV-3, TEM-1); conditions: Escherichia coli, 2150; alone; read-out: MIC of cefdinir (CDR)
[3] = tested on: E. coli 2806; assay: Broth microdilution MIC (strain enzymes: SHV-12, TEM-1); conditions: Escherichia coli, 2806; alone; read-out: MIC of cefdinir (CDR)
[4] = tested on: E. coli 3174; assay: Broth microdilution MIC (strain enzymes: TEM-1, CTXM-15); conditions: Escherichia coli, 3174; alone; read-out: MIC of cefdinir (CDR)
[5] = tested on: E. coli 3327; assay: Broth microdilution MIC (strain enzymes: TEM-1, SHV-12); conditions: Escherichia coli, 3327; alone; read-out: MIC of cefdinir (CDR)
[6] = tested on: E. coli BAS 1; assay: Broth microdilution MIC (strain enzymes: none detected); conditions: Escherichia coli, BAS1; alone; read-out: MIC of cefdinir (CDR)
[7] = tested on: E. coli ESBL 2; assay: Broth microdilution MIC (strain enzymes: TEM-1); conditions: Escherichia coli, ESBL2; alone; read-out: MIC of cefdinir (CDR)
[8] = tested on: E. coli ESBL 4; assay: Broth microdilution MIC (strain enzymes: CTX-M15, TEM-1); conditions: Escherichia coli, ESBL4; alone; read-out: MIC of cefdinir (CDR)
[9] = tested on: E. coli ESBL 5; assay: as above; conditions: Escherichia coli, ESBL5; alone; read-out: MIC of cefdinir (CDR)
[10] = tested on: E. coli SI-AIRT-4; assay: Broth microdilution MIC (strain enzymes: TEM-1); conditions: Escherichia coli, SIAIRT4; alone; read-out: MIC of cefdinir (CDR)
[11] = tested on: E. coli Si-FDL-GES; assay: microbe, parasite or virus in culture; conditions: Escherichia coli, read-out: MIC of cefdinir (CDR)
[12] = tested on: E. coli SI-LP377; assay: microbe, parasite or virus in culture; conditions: Escherichia coli, SILP377, read-out: MIC of cefdinir (CDR)
[13] = tested on: E. coli SI-M004; assay: Broth microdilution MIC (strain enzymes: SHV-2, GES-12); conditions: Escherichia coli, SIM004; alone; read-out: MIC of cefdinir (CDR)
[14] = tested on: E. coli SI-NO36; assay: Broth microdilution MIC (strain enzymes: SHV-11, TEM-1); conditions: Escherichia coli, SINO36; alone; read-out: MIC of cefdinir (CDR)
[15] = tested on: E. coli SI-PBLII; assay: Broth microdilution MIC (strain enzymes: CTX-M2, TEM-1); conditions: Escherichia coli; alone; read-out: MIC of cefdinir (CDR)
[16] = tested on: E. coli SI-V502; assay: Broth microdilution MIC (strain enzymes: TEM-29, CTX-M15); conditions: Escherichia coli, SIV502; alone; read-out: MIC of cefdinir (CDR)
[17] = tested on: E. coli 25922; assay: Broth microdilution MIC (strain enzymes: None detected); conditions: Escherichia coli, 25922; alone; read-out: MIC of cefdinir (CDR)
[18] = tested on: K. oxytoca 169219; assay: Broth microdilution MIC (strain enzymes: TEM-1, CTXM-15); conditions: Klebsiella oxytoca, 169219; alone; read-out: MIC of cefdinir (CDR)
[19] = tested on: K. oxytoca 176877; assay: Broth microdilution MIC (strain enzymes: SHV-105); conditions: Klebsiella oxytoca, 176877; alone; read-out: MIC of cefdinir (CDR)
[20] = tested on: K. oxytoca 496 #2; assay: Broth microdilution MIC (strain enzymes: SHV-105, TEM-1); conditions: Klebsiella oxytoca; alone; read-out: MIC of cefdinir (CDR)
[21] = tested on: K. pneumoniae 3151; assay: Broth microdilution MIC (strain enzymes: SHV-12, TEM-1); conditions: Klebsiella pneumoniae, 3151; alone; read-out: MIC of cefdinir (CDR)
[22] = tested on: K. pneumoniae 115468; assay: Broth microdilution MIC (strain enzymes: TEM-1); conditions: Klebsiella pneumoniae, 115468; alone; read-out: MIC of cefdinir (CDR)
[23] = tested on: K. pneumoniae 153239; assay: Broth microdilution MIC (strain enzymes: SHV-11, TEM-1); conditions: Klebsiella pneumoniae, 153239; alone; read-out: MIC of cefdinir (CDR)
[24] = tested on: K. pneumoniae 170375; assay: Broth microdilution MIC (strain enzymes: SHV-12, CTX-M15 and TEM-1); conditions: Klebsiella pneumoniae, 170375; alone; read-out: MIC of cefdinir (CDR)
[25] = tested on: K. pneumoniae 304487; assay: Broth microdilution MIC (strain enzymes: SHV-12,TEM-1); conditions: Klebsiella pneumoniae, 304487; alone; read-out: MIC of cefdinir (CDR)
[26] = tested on: K. pneumoniae 319478; assay: Broth microdilution MIC (strain enzymes: SHV-12, CTX-M3 and TEM-1); conditions: Klebsiella pneumoniae, 319478; alone; read-out: MIC of cefdinir (CDR)
[27] = tested on: K. pneumoniae 329633; assay: Broth microdilution MIC (strain enzymes: SHV-5, TEM-1); conditions: Klebsiella pneumoniae, 329633; alone; read-out: MIC of cefdinir (CDR)
[28] = tested on: K. pneumoniae 11/23 LF#2; assay: microbe, parasite or virus in culture; conditions: Klebsiella pneumoniae, read-out: MIC of cefdinir (CDR)
[29] = tested on: K. pneumoniae ESBL 10; assay: Broth microdilution MIC (strain enzymes: SHV-12, TEM-1); conditions: Klebsiella pneumoniae, ESBL10; alone; read-out: MIC of cefdinir (CDR)
[30] = tested on: K. pneumoniae ESBL 7 #1; assay: as above; conditions: Klebsiella pneumoniae; alone; read-out: MIC of cefdinir (CDR)
[31] = tested on: K. pneumoniae ESBL 8 #1; assay: Broth microdilution MIC (strain enzymes: TEM-1, SHV-12); conditions: Klebsiella pneumoniae; alone; read-out: MIC of cefdinir (CDR)
[32] = tested on: K. pneumoniae ESBL 8 #2; assay: Broth microdilution MIC (strain enzymes: SHV-12, TEM-1); conditions: Klebsiella pneumoniae; alone; read-out: MIC of cefdinir (CDR)
[33] = tested on: K. pneumoniae ESBL 7 #2; assay: Broth microdilution MIC (strain enzymes: SHV-12, CTX-M15, TEM-1); conditions: Klebsiella pneumoniae; alone; read-out: MIC of cefdinir (CDR)
[34] = tested on: K. pneumoniae KI (KCl); assay: Broth microdilution MIC (strain enzymes: TEM-10); conditions: Klebsiella pneumoniae; alone; read-out: MIC of cefdinir (CDR)
[35] = tested on: K. pneumoniae KP 3; assay: Broth microdilution MIC (strain enzymes: SHV-1, TEM-1); conditions: Klebsiella pneumoniae, KP3; alone; read-out: MIC of cefdinir (CDR)
[36] = tested on: K. pneumoniae KP 4; assay: Broth microdilution MIC (strain enzymes: SHV-2a, SHV-5, TEM-1); conditions: Klebsiella pneumoniae, KP4; alone; read-out: MIC of cefdinir (CDR)
[37] = tested on: K. pneumoniae KP 8; assay: Broth microdilution MIC (strain enzymes: TEM-10, TEM-1, CTX-M15); conditions: Klebsiella pneumoniae, KP8; alone; read-out: MIC of cefdinir (CDR)
[38] = tested on: K. pneumoniae KPN 508; assay: Broth microdilution MIC (strain enzymes: SHV-7, TEM-1); conditions: Klebsiella pneumoniae, KPN508; alone; read-out: MIC of cefdinir (CDR)
[39] = tested on: K. pneumoniae SI-KP NO30; assay: Broth microdilution MIC (strain enzymes: TEM-26b, SHV-60, SHV-26); conditions: Klebsiella pneumoniae, SIKPNO30; alone; read-out: MIC of cefdinir (CDR)
[40] = tested on: K. pneumoniae BAA 1705; assay: Broth microdilution MIC (strain KPC-producing); conditions: Klebsiella pneumoniae, BAA1705; alone; read-out: MIC of cefdinir (CDR)
[41] = tested on: panel of ESBL-producing Enterobacteriaceae (40 strains); assay: Broth microdilution MIC50/MIC90 summary over the panel

C=CC1=C(C(=O)O)N2C(=O)[C@@H](NC(=O)/C(=N\O)c3csc(N)n3)[C@H]2SC1 [Cefdinir, cefdinir, reference compound]
MIC [1]: 2 µg/mL | MIC [2]: > 32 µg/mL | MIC [3]: 4 µg/mL | MIC [4]: 1 µg/mL | MIC [5]: 16 µg/mL | MIC [6]: > 32 µg/mL | MIC [7]: > 32 µg/mL | MIC [8]: > 32 µg/mL | MIC [9]: > 32 µg/mL | MIC [10]: 0.25 µg/mL | MIC [11]: > 32 µg/mL | MIC [12]: > 32 µg/mL | MIC [13]: 32 µg/mL | MIC [14]: 4 µg/mL | MIC [15]: 2 µg/mL | MIC [16]: 2 µg/mL | MIC [17]: 0.5 µg/mL | MIC [18]: > 32 µg/mL | MIC [19]: 8 µg/mL | MIC [20]: 16 µg/mL | MIC [21]: > 32 µg/mL | MIC [22]: 8 µg/mL | MIC [23]: 2 µg/mL | MIC [24]: > 32 µg/mL | MIC [25]: 8 µg/mL | MIC [26]: > 32 µg/mL | MIC [27]: 16 µg/mL | MIC [28]: 2 µg/mL | MIC [29]: 16 µg/mL | MIC [30]: 32 µg/mL | MIC [31]: 16 µg/mL | MIC [32]: 16 µg/mL | MIC [33]: > 32 µg/mL | MIC [34]: 1 µg/mL | MIC [35]: 4 µg/mL | MIC [36]: 8 µg/mL | MIC [37]: 0.5 µg/mL | MIC [38]: 32 µg/mL | MIC [39]: 0.5 µg/mL | MIC [40]: > 32 µg/mL | MIC50 ([41]; read-out: Cefdinir MIC50): 16 µg/mL (≈ 40.5 µM) | MIC90 ([41]; read-out: Cefdinir MIC90): > 32 µg/mL

COCC1=C(C(=O)O)N2C(=O)[C@@H](NC(=O)/C(=N\OC)c3csc(N)n3)[C@H]2SC1 [Cefpodoxime, cefpodoxime, reference compound]
MIC50 ([41]; read-out: Cefpodoxime MIC50): > 32 µg/mL | MIC90 ([41]; read-out: Cefpodoxime MIC90): > 32 µg/mL
